Measurements published in ChEMBL document CHEMBL3885881, “DrugMatrix”.

Organism: Rattus norvegicus
Assay type: toxicity, organism-based, Sprague-Dawley
Settings: in vivo, sc, 24 h, route mini-PUMP - SUBCUTANEOUS, time 1 day, vehicle 100 % SALINE
[1] = 0 mg/kg, tissue Blood, dose level Control
[2] = 0 mg/kg, tissue Plasma, dose level Control
[3] = […], tissue Blood, dose 0.77 mg/Kg, dose level High
[4] = […], tissue Plasma, dose 0.77 mg/Kg, dose level High

Description: DrugMatrix - Regimen: Single

## CNCC(O)c1ccc(O)c(O)c1 (configuration not stated) [RACEPINEPHRINE]
[1]
  ABSOLUTE EOSINOPHIL: 26.17 CELLS/uL
  ABSOLUTE LYMPHOCYTE: 10985.83 CELLS/uL
  ABSOLUTE MONOCYTE: 234.5 CELLS/uL
  ABSOLUTE SEGMENTED NEUTROPHIL: 1753.5 CELLS/uL
  BASOPHIL: 0%
  EOSINOPHIL: 0.17%
  ERYTHROCYTE COUNT: 5.64 x10E6/uL
  HEMOGLOBIN: 12.68 G/DL
  LEUKOCYTE COUNT: 13 x10E3/uL
  LYMPHOCYTE: 84.5%
  MEAN CORPUSCULAR HEMOGLOBIN: 22.5 pg
  MEAN CORPUSCULAR HEMOGLOBIN CONCENTRATION: 36.78 G/DL
  MEAN CORPUSCULAR VOLUME: 61.18 fL
  NEUTROPHIL: 13.5%
  NUCLEATED RED BLOOD CELLS: 0.17 /100WBC
  PLATELET COUNT: 679.17 x10E3/uL
[2]
  ALANINE AMINOTRANSFERASE: 42.67 u/L
  ALBUMIN: 3.77 G/DL
  ALKALINE PHOSPHATASE: 291.17 u/L
  ASPARTATE AMINOTRANSFERASE: 74.5 u/L
  BLOOD UREA NITROGEN: 15.33 mg/dL
  CARBON DIOXIDE: 30 mmol/L
  CHLORIDE: 100.83 MEQ/L
  CHOLESTEROL: 65.33 mg/dL
  CREATININE: 0.15 mg/dL
  LACTATE DEHYDROGENASE: 162.67 u/L
  LIPASE: 8.5 u/L
  PHOSPHORUS: 12.2 mg/dL
  POTASSIUM: 5.73 MEQ/L
  SODIUM: 144.7 MEQ/L
  TOTAL BILIRUBIN: 0.15 mg/dL
  TOTAL PROTEIN: 5.87 G/DL
  URIC ACID: 1.93 mg/dL
[3]
  ABSOLUTE EOSINOPHIL: 58.33 CELLS/uL
  ABSOLUTE LYMPHOCYTE: 10774 CELLS/uL
  ABSOLUTE MONOCYTE: 283.33 CELLS/uL
  ABSOLUTE SEGMENTED NEUTROPHIL: 3051 CELLS/uL
  BASOPHIL: 0%
  ERYTHROCYTE COUNT: 5.86 x10E6/uL
  HEMOGLOBIN: 12.93 G/DL
  LEUKOCYTE COUNT: 14.17 x10E3/uL
  LYMPHOCYTE: 76.33%
  MEAN CORPUSCULAR HEMOGLOBIN: 22.1 pg
  MEAN CORPUSCULAR HEMOGLOBIN CONCENTRATION: 36.47 G/DL
  MEAN CORPUSCULAR VOLUME: 60.53 fL
  NEUTROPHIL: 21.33%
  NUCLEATED RED BLOOD CELLS: 0.67 /100WBC
  PLATELET COUNT: 983 x10E3/uL
[4]
  ALBUMIN: 4.03 G/DL
  ALKALINE PHOSPHATASE: 374 u/L
  BLOOD UREA NITROGEN: 11.67 mg/dL
  CHLORIDE: 100.33 MEQ/L
  CHOLESTEROL: 88.67 mg/dL
  CREATININE: 0.15 mg/dL
  GLUCOSE: 283.33 mg/dL
  LACTATE DEHYDROGENASE: 103.67 u/L
  LIPASE: 9 u/L
  PHOSPHORUS: 15.53 mg/dL
  POTASSIUM: 5.99 MEQ/L
  SODIUM: 145.87 MEQ/L
  TOTAL BILIRUBIN: 0.13 mg/dL
  URIC ACID: 3.3 mg/dL
